Laboratory results from ChEMBL document CHEMBL1909562, “Carbazole-containing arylcarboxamides as BACE1 inhibitors” (Bioorg Med Chem Lett, 2011).

target: Beta-secretase 1 (Homo sapiens, UniProt P56817); assay: Inhibition of BACE1 by fluorescence-based assay
Sequence (P56817 whole entry): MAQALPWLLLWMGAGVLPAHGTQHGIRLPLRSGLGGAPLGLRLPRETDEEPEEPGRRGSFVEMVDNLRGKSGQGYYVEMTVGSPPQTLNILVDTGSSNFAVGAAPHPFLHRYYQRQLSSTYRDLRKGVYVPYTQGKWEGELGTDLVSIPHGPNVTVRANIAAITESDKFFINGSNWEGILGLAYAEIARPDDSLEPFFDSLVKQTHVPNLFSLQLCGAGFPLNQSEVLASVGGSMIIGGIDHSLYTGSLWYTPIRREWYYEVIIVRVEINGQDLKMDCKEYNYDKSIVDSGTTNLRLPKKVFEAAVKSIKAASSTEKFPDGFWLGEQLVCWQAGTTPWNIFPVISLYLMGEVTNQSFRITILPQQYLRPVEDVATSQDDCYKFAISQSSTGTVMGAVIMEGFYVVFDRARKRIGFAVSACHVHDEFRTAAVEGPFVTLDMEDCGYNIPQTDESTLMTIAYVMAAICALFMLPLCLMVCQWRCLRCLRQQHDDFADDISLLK

IC50	Structure (SMILES)
> 10 µM	O=C(c1ccccc1)N(CC(O)Cn1c2ccccc2c2ccccc21)c1ccccc1 (centres undefined)
4.7 µM	O=C(c1ccc(Cl)cc1)N(CC(O)Cn1c2ccccc2c2ccccc21)c1ccccc1 (centres undefined)
2.5 µM	O=C(c1ccc(Cl)c(Cl)c1)N(CC(O)Cn1c2ccccc2c2ccccc21)c1ccccc1 (centres undefined)
> 10 µM	O=C(c1ccccc1)N(CC(O)Cn1c2ccccc2c2ccccc21)c1ccc(F)cc1 (centres undefined)
> 10 µM	Cc1ccc(N(CC(O)Cn2c3ccccc3c3ccccc32)C(=O)c2ccccc2)cc1 (centres undefined)
> 10 µM	O=C(c1ccccc1)N(Cc1ccccc1)CC(O)Cn1c2ccccc2c2ccccc21 (centres undefined)
> 10 µM	Cc1ccc(CN(CC(O)Cn2c3ccccc3c3ccccc32)C(=O)c2ccccc2)cc1 (centres undefined)
> 10 µM	COc1ccc(CN(CC(O)Cn2c3ccccc3c3ccccc32)C(=O)c2ccccc2)cc1 (centres undefined)
4.8 µM	O=C(c1ccccc1)N(CCc1ccccc1)CC(O)Cn1c2ccccc2c2ccccc21 (centres undefined)
> 10 µM	O=C(c1ccccc1)N(CC(O)Cn1c2ccccc2c2ccccc21)C1CCCCC1 (centres undefined)
2.99 µM	OC(CNc1cccc2ccccc12)Cn1c2ccccc2c2ccccc21 (centres undefined)

Further lines, the compound ahead of its results:

Structure (SMILES)	IC50
COc1ccc(C(=O)N(CC(O)Cn2c3ccccc3c3ccccc32)c2ccccc2)cc1 (centres undefined)	3.8 µM
O=C(c1ccccc1)N(CC(O)Cn1c2ccccc2c2ccccc21)c1ccc(C(F)(F)F)cc1 (centres undefined)	> 10 µM
O=C(c1ccccc1)N(CC(O)Cn1c2ccccc2c2ccccc21)c1ccc([N+](=O)[O-])cc1 (centres undefined)	> 10 µM
O=C(c1ccccc1)N(CC(O)Cn1c2ccccc2c2ccccc21)c1ccc(Cl)cc1 (centres undefined)	> 10 µM
O=C(c1ccc(Cl)cc1)N(Cc1ccccc1)CC(O)Cn1c2ccccc2c2ccccc21 (centres undefined)	> 10 µM
COc1ccc(C(=O)N(Cc2ccccc2)CC(O)Cn2c3ccccc3c3ccccc32)cc1 (centres undefined)	> 10 µM
O=C(c1ccc(Cl)c(Cl)c1)N(Cc1ccccc1)CC(O)Cn1c2ccccc2c2ccccc21 (centres undefined)	> 10 µM
O=C(c1ccccc1)N(Cc1ccc(Cl)cc1)CC(O)Cn1c2ccccc2c2ccccc21 (centres undefined)	> 10 µM
